Data reported in patent publication US20150065345A1, “1,2,4 - TRIAZOLE DERIVATIVES AS HERBICIDALS” (SYNGENTA LIMITED, priority 2012, published 2015).

Key:
Format in all cases: in vivo
Conditions in all cases: 1000 g/h, evaluated after 13 days, five point scale
[1] = system: Digitaria sanguinalis (DIGSA); assay: Glasshouse herbicide test, pre-emergence
Description: (§1) Seeds of a variety of test species are sown in standard soil in pots Alopecurus myosuroides (ALOMY), Amaranthus retoflexus (AMARE), Setaria faberi (SETFA), Echinochloa crus-galli (ECHCG), Lolium perenne (LOLPE), Solanum nigrum (SOLNI), Stellaria media (STEME) and Digitaria sanguinalis (DIGSA). After cultivation for one day (pre-emergence) or after 8 days cultivation (post-emergence) under controlled conditions in a glasshouse (at 24/16° C., day/night; 14 hours light; 65% humidity), the plants are sprayed with an aqueous spray solution derived from the formulation of the technical active ingredient in acetone/water (50:50) solution containing 0.5% Tween 20 (polyoxyethelyene sorbitan monolaurate, CAS RN 9005-64-5). Compounds are applied at 1000 g/h. The test plants are then grown in a glasshouse under controlled conditions in a glasshouse (at 24/16° C., day/night; 14 hours light; 65% humidity) and watered twice daily. After 13 days for pre and post-emergence, the test is evaluated for the percentage damage caused to the plant. The biological activities are shown in the following table on a five point scale (5=80-100%; 4=60-79%; 3=40-59%; 2=20-39%; 1=0-19%).

[2] = system: Stellaria media (STEME); assay: Glasshouse herbicide test, pre-emergence
Description: as §1

[3] = system: Amaranthus retoflexus (AMARE); assay: Glasshouse herbicide test, pre-emergence
Description: as §1

[4] = system: Lolium perenne (LOLPE); assay: Glasshouse herbicide test, pre-emergence
Description: as §1

[5] = system: Digitaria sanguinalis (DIGSA); assay: Glasshouse herbicide test, post-emergence
Description: as §1

[6] = system: Stellaria media (STEME); assay: Glasshouse herbicide test, post-emergence
Description: as §1

[7] = system: Amaranthus retoflexus (AMARE); assay: Glasshouse herbicide test, post-emergence
Description: as §1

[8] = system: Lolium perenne (LOLPE); assay: Glasshouse herbicide test, post-emergence
Description: as §1

[9] = system: Echinochloa crus-galli (ECHCG); assay: Glasshouse herbicide test, pre-emergence
Description: as §1

[10] = system: IPOHE; assay: Glasshouse herbicide test, pre-emergence
Description: [The procedure below names another species; the source lists this species under the same test.] as §1

[11] = system: Setaria faberi (SETFA); assay: Glasshouse herbicide test, pre-emergence
Description: as §1

[12] = system: Solanum nigrum (SOLNI); assay: Glasshouse herbicide test, pre-emergence
Description: as §1

[13] = system: Alopecurus myosuroides (ALOMY); assay: Glasshouse herbicide test, pre-emergence
Description: as §1

[14] = system: Echinochloa crus-galli (ECHCG); assay: Glasshouse herbicide test, post-emergence
Description: as §1

[15] = system: IPOHE; assay: Glasshouse herbicide test, post-emergence
Description: [The procedure below names another species; the source lists this species under the same test.] as §1

[16] = system: Setaria faberi (SETFA); assay: Glasshouse herbicide test, post-emergence
Description: as §1

[17] = system: Solanum nigrum (SOLNI); assay: Glasshouse herbicide test, post-emergence
Description: as §1

[18] = system: Alopecurus myosuroides (ALOMY); assay: Glasshouse herbicide test, post-emergence
Description: as §1

Compound | percentage damage caused to the plant, DIGSA, PRE Application [1] | percentage damage caused to the plant, STEME, PRE Application [2] | percentage damage caused to the plant, AMARE, PRE Application [3] | percentage damage caused to the plant, LOLPE, PRE Application [4] | percentage damage caused to the plant, DIGSA, POST Application [5] | percentage damage caused to the plant, STEME, POST Application [6] | percentage damage caused to the plant, AMARE, POST Application [7] | percentage damage caused to the plant, LOLPE, POST Application [8] | percentage damage caused to the plant, ECHCG, PRE Application [9] | percentage damage caused to the plant, IPOHE, PRE Application [10] | percentage damage caused to the plant, AMARE, PRE Application ([3]; second table) | percentage damage caused to the plant, SETFA, PRE Application [11] | percentage damage caused to the plant, SOLNI, PRE Application [12] | percentage damage caused to the plant, ALOMY, PRE Application [13] | percentage damage caused to the plant, ECHCG, POST Application [14] | percentage damage caused to the plant, IPOHE, POST Application [15] | percentage damage caused to the plant, AMARE, POST Application ([7]; second table) | percentage damage caused to the plant, SETFA, POST Application [16] | percentage damage caused to the plant, SOLNI, POST Application [17] | percentage damage caused to the plant, ALOMY, POST Application [18]
Cn1cnnc1NC(=O)c1ccc(S(C)(=O)=O)c(COCC(F)(F)F)c1Cl [Compound 1.001] | 1 (1=0-19%) | 1 (1=0-19%) | 3 (3=40-59%) | 1 (1=0-19%) | 5 (5=80-100%) | 5 (5=80-100%) | 5 (5=80-100%) | 1 (1=0-19%) | – | – | – | – | – | – | – | – | – | – | – | –
Cc1ccc(C(F)(F)F)c(C(=O)Nc2nncn2C)c1 [Compound 2.006] | – | – | – | – | – | – | – | – | 1 (1=0-19%) | 3 (3=40-59%) | 2 (2=20-39%) | 1 (1=0-19%) | 3 (3=40-59%) | 1 (1=0-19%) | 1 (1=0-19%) | 2 (2=20-39%) | 2 (2=20-39%) | 1 (1=0-19%) | 4 (4=60-79%) | 1 (1=0-19%)
